From publication PMC3729023 (Journal of the American Chemical Society, 2012)

Assays:
Src = Src kinase assay; type: biochemical; conditions: read-out: IC50 (inactive up to); Src pretreated 30 min in the presence of 0.25 mM ATP prior to initiating the kinase reaction
endogenous Src = endogenous Src (Homo sapiens, UniProt P12931); conditions: Jurkat cells, inhibitor at 300 nM, then 1 (1 µM, 15 min)
endogenous Blk = endogenous Blk (Homo sapiens, UniProt P51451); assay: Competitive profiling with probe 1 in Jurkat cells: Blk; type: cell-based; conditions: inhibitor at 300 nM, then 1 (1 µM, 15 min)
Chain of endogenous Blk (P51451 whole entry): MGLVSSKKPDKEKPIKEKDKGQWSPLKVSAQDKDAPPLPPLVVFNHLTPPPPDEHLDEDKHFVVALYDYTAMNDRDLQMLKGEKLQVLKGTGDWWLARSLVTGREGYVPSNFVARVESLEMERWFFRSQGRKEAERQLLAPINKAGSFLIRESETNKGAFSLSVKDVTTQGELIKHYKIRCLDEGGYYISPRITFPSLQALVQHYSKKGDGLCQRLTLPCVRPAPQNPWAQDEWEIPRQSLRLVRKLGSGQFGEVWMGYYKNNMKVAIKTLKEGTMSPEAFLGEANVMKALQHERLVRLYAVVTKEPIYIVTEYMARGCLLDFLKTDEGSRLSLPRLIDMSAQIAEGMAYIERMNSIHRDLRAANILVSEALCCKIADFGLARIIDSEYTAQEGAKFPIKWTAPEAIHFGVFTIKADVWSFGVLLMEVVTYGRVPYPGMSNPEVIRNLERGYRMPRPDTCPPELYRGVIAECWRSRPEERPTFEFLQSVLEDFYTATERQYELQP

endogenous Fyn = endogenous Fyn (Homo sapiens, UniProt P06241); assay: Competitive profiling with probe 1 in Jurkat cells: Fyn; type: cell-based; conditions: inhibitor at 300 nM, then 1 (1 µM, 15 min)
Chain of endogenous Fyn (P06241 1-534 isoform P06241-2): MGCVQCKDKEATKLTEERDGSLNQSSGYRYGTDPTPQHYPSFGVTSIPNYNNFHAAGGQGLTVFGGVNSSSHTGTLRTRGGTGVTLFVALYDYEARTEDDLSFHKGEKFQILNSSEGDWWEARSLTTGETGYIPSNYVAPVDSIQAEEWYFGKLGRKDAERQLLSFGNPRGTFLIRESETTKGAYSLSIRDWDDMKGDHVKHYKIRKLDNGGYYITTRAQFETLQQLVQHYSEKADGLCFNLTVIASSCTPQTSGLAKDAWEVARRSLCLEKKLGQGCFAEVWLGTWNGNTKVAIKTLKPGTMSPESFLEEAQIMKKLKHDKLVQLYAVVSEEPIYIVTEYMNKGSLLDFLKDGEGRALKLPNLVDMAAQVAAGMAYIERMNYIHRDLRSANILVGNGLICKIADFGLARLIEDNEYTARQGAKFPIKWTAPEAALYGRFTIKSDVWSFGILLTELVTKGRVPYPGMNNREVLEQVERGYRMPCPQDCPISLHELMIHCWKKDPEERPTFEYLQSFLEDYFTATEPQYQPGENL

[1] = in humans; cited from earlier work
endogenous Lck = endogenous Lck (Homo sapiens, UniProt P06239); assay: Competitive profiling with probe 1 in Jurkat cells: Lck; type: cell-based; conditions: inhibitor at 300 nM, then 1 (1 µM, 15 min)
Chain of endogenous Lck (P06239 whole entry): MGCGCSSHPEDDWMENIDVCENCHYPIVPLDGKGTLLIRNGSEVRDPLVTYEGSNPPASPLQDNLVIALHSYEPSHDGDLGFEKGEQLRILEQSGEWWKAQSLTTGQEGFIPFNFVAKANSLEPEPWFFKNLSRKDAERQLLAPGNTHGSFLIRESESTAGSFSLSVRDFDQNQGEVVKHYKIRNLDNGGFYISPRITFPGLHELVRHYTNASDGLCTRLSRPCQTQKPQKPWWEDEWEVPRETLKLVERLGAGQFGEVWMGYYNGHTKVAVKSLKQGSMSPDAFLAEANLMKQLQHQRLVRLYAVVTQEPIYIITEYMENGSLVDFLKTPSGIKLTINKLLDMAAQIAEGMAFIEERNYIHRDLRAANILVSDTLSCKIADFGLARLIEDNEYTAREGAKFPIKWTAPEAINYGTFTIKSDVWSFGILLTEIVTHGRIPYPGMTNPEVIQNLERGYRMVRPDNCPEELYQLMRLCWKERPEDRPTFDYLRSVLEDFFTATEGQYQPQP

Chain of endogenous Src (P12931 whole entry): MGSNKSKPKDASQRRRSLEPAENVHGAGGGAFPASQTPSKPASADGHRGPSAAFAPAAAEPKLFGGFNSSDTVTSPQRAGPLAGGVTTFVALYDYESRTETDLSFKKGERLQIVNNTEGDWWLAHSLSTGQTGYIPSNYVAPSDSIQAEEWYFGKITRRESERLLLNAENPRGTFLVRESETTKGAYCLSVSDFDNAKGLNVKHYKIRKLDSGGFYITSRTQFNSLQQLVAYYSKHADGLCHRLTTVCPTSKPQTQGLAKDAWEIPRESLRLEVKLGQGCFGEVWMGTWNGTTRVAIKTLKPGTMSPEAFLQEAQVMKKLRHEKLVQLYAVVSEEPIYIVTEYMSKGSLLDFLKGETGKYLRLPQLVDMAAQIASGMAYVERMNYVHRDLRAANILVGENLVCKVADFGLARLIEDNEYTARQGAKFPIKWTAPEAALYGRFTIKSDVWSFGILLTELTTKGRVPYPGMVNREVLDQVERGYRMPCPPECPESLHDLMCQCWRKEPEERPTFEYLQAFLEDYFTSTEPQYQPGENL

SMILES: Nc1ncnc2c1ncn2[C@@H]1O[C@H](COC(=O)c2ccc(S(=O)(=O)F)cc2)[C@@H](O)[C@H]1O [FSBA, p-fluorosulfonylbenzoyl adenosine]
- IC50 (Src): > 10 µM

SMILES: Cc1ccc(C(=O)Nc2ccc(CN3CCN(C)CC3)c(C(F)(F)F)c2)cc1C#Cc1cnc2cccnn12 [ponatinib]
- labeling of endogenous Src by 1 (endogenous Src): unaffected
- labeling of endogenous Blk by 1 (endogenous Blk): abrogated labeling
- labeling of endogenous Fyn by 1 (endogenous Fyn): unaffected
- mean steady-state concentrations [1]: 75 to 180 nM
- labeling of endogenous Lck by 1 (endogenous Lck): abrogated labeling
